Marks after values point to notes of the source that are not given here.
Key:
[1] = system: PHA-stimulated lymphocytes; assay: Viability of lymphocytes in the HIV replication test; assay type: cell-based
Procedure: PHA-stimulated lymphocytes were inoculated with a clinical isolate of HIV at a multiplicity of infection of […]. Fresh lymphocytes were obtained and stimulated with PHA and IL-2. After 3 days, 1000 TCID of virus-(HIV clinical isolate) were applied for 1 hour and there was a M.O.I. of 1:10. The cells were washed and in a dose response fashion, and drug in media was applied. After 3 days, the supernatant was exchanged with ½ volume of fresh media and ½ the volume of fresh drug. After 7 days, detergent was added, and HIV P-24 Antigen was determined by Elisa. Viability of the lymphocytes was evaluated along with appearance of the viral gene product p24.

[2] = Growth and weight gain in normal growing mice; assay type: in vivo; conditions: C57B mice
Procedure: Animals were dosed QTD (i.p.) starting on Day 1. […] Animals receiving 5 mg/kg QTD experienced about a 50% reduction in growth, compared to untreated controls, while animals receiving 1 mg/kg QTD were affected by about 10%. […] They appeared very much like hypophysectamized animals might appear.

[3] = Arterial pressure in catheterized rat; assay type: in vivo
Procedure: A 200-g rat was catheterized in the right carotid artery, and the compound was introduced over a ten-second period to a total dosage of 5 mg/kg. Within 30 seconds, the mean arterial pressure had fallen from about 100 mm Hg to about 70 mm Hg, with a marked reduction in pulse pressure from about 40 mm to about 10 mm. […] If cardiac output was basically unaffected, reduction in blood pressure would have resulted principally from a reduction in system resistance.
At that time, 40 μg of noradrenaline was introduced.

[4] = system: heart of a juvenile Xenopus laevis frog; assay: Isolated frog heart, persistence of beating ex vivo; conditions: 10 μg/ml; Krebs-Ringer buffer with adrenaline 50 μg/ml; without compound about one hour
Procedure: To determine if compound 1436 has such utility, the following experiment was performed. The heart of a juvenile Xenopus laevis frog was dissected from the living animal. The heart was placed into a Petri dish containing Krebs-Ringer buffer with adrenaline 50 μg/ml, and examined with the naked eye. At room temperature, the heart continued beating in a coordinated fashion (atrial beat followed by ventricular beat) for about one hour. In the presence of 10 μg/ml of compound 1436, spontaneous beating persisted up to 24 hours.

[5] = system: PHA-stimulated human lymphocytes; assay: Inhibition of mitogen-stimulated growth of human T-cells; assay type: cell-based; conditions: Lymphocyte, 10 μg/ml, read-out: Inhibition of blast transformation
[6] = system: L1210 lymphoblastic leukemia cells; assay: Mouse model of L1210 leukemia
Procedure: C57B mice were inoculated with L1210 lymphoblastic leukemia cells at an inoculum that causes leukemia in 100% of animals. Mice received compound 1436 at 1, 5, 10 mg/kg every 3 days intraperitoneally.
Of particular interest is the hematological profile determined during the course of treatment. Animals were treated with cisplatin and compound 1436.

[7] = system: bovine pulmonary endothelial cells; assay: Cell growth with membrane-active agents (absorbance at 600 nm); assay type: cell-based; conditions: 1 μg/ml
Procedure: (§1) Cell growth was measured by absorbance at 600 nm.

[8] = system: human epithelial cell line MCF 10A; assay: as above; assay type: cell-based; conditions: 10 μg/ml
Procedure: as §1

[9] = system: human foreskin fibroblasts; assay: as above; assay type: cell-based; conditions: 10 μg/ml
Procedure: as §1

[10] = system: chorioallantoic membrane capillaries; assay: Chorioallantoic membrane (CAM) model of capillary growth; assay type: in vivo, chick; conditions: for Percentage positive, Assay 1 / Percentage positive, Assay 2 / Percentage positive, Mean: 3-day embryo
From the text: The growing capillaries within the chorioallantoic membrane model (CAM model) have been used as a system in which to evaluate the effect of agents on their potential to inhibit new vessel growth. Neovascularization occurs most aggressively over the first week of embryonic development. Thereafter capillary growth is characterized by principally “elongation” rather than “de novo” formation. In the standard assay, agents are applied locally to a region of the embryo over which neovascularization will occur. Agents are assessed by their ability to inhibit this process, as evaluated by visual examination about 7 days after application. […] The assay utilized is described in detail in Auerbach et al., Pharm. Ther. 51, 1991, 1-11.

VX2 carcinoma = assay: Tumor-induced corneal neovascularization in rabbits; assay type: in vivo, rabbit; conditions: pellet of ELVAX 40 P
From the text: The implantation of VX2 carcinoma into the rabbit cornea results in the induction of new blood vessels within several days (Tamargo et al., Cancer Research 51, 1991, 672-675). It is believed that this carcinoma secretes growth factors that stimulate new blood-vessel growth. Thus, this model is indicative in vivo evidence of therapeutic utility in the treatment of pathological disorders of vascularization, including the metastatic spread of tumors, diabetic retinopathy, macular degeneration, and rheumatoid arthritis.
This experiment followed the published protocol—tumor was implanted adjacent to a polymer containing a concentration of the agent to be evaluated. The polymer releases the agent slowly in the immediate neighborhood of the tumor, providing sustained high local concentrations of the agent. In this experiment, squalamine introduced into a pellet of ELVAX 40 P (DuPont, Wilmington, Del.) inhibited new blood vessel formation by about 60% at days 7 and 14, and by about 25% at day 21.

Mouse IV PK study = conditions: in vivo, i.v., HPLC, read-out: Half-life of clearance from the blood stream
Procedure: To assess clearance, a mouse IV PK study was performed for compound 319 and squalamine. The compound was administered i.v. and blood samples were taken every 10 minutes. The concentration of the administered steroid was determined by HPLC analysis.

Murine B16 melanoma = assay: In vitro cell growth inhibition (assay of Baker et al.); assay type: cell-based; conditions: except at very high concentrations
From the text: As set forth in Table 7 below, all malignant tumors evaluated in tissue culture, endothelial cells and vascular smooth muscle cells were sensitive to inhibition. Thus, compound 1436 has application in the control of growth factor dependent proliferation of many types of tissue.

[11] = mice with 5 × 10^5 L1210 cells ip, cisplatin 8 mg/kg ip, compound 1436 10 mg/kg ip q4d
[12] = 20 μg applied, some vascular irritation noted
[13] = 40 μg applied, some vascular irritation noted

CC(CC[C@@H](OS(=O)(=O)O)C(C)C)[C@H]1CCC2C3C(CC[C@@]21C)[C@@]1(C)CC[C@H](NCCCNCCCCNCCCN)C[C@@H]1C[C@H]3O (stereo partly drawn) [Compound 1436]
Lymphocyte viability retained ([1]; 10 μg/ml): 95% | % Viability ([1]; Conc. 0.5 μM): 91% | % Viability ([1]; Conc. 10 μM): 95% | % Viability ([1]; Conc. 20 μM): 90.1% | Reduction in growth compared to untreated controls ([2]; 1 mg/kg QTD i.p.): about 10% | Reduction in growth compared to untreated controls ([2]; 5 mg/kg QTD i.p.): ~50% | Suppression of growth of mice ([2]; 10 mg/kg QTD i.p., after 6 doses, about 1 month): growth was almost completely inhibited | Heart rate ([3]; 5 mg/kg): no significant increase in heart rate | Time to fall of arterial pressure ([3]; 5 mg/kg): ≤ 30 s | Mean arterial pressure after dosing ([3]; 5 mg/kg over ten seconds, fallen from about 100 mm Hg): about 70 mm Hg | Pulse pressure after dosing ([3]; 5 mg/kg, reduced from about 40 mm): about 10 mm | Persistence of spontaneous beating [4]: up to 24 hours | inhibition at 10 µg/mL [5]: > 75% | Survival of leukemic mice ([6]; highest dose (10 mg/kg every 3 days intraperitoneally)): significant prolongation of life | RBC, Early Time [6, 11]: 4.8 10^6/mm^3 | RBC, Late Time [6, 11]: 8.8 10^6/mm^3 | WBC, Early Time [6, 11]: 3.3 10^3/mm^3 | WBC, Late Time [6, 11]: 3.7 10^3/mm^3

CC(CC[C@@H](OS(=O)(=O)O)C(C)C)[C@H]1CCC2C3C(CC[C@@]21C)[C@@]1(C)CC[C@H](NCCCNCCCCN)C[C@@H]1C[C@H]3O (stereo partly drawn) [squalamine]
Effect on cell growth [7]: inhibited the growth | Effect on cell growth [8]: no effect on the growth | Effect on cell growth [9]: no effect on the growth | Percentage positive, Assay 1 ([10]; 0.65 μg applied): 28% | Percentage positive, Assay 1 ([10]; 1.25 μg applied): 18% | Percentage positive, Assay 2 ([10]; 1.25 μg applied): 18% | Percentage positive, Mean ([10]; 1.25 μg applied): 18% | Percentage positive, Assay 1 ([10]; 2.5 μg applied): 35% | Percentage positive, Assay 2 ([10]; 2.5 μg applied): 18% | Percentage positive, Mean ([10]; 2.5 μg applied): 27% | Percentage positive, Assay 1 ([10]; 5.0 μg applied): 91% | Percentage positive, Assay 2 ([10]; 5.0 μg applied): 57% | Percentage positive, Mean ([10]; 5.0 μg applied): 74% | Percentage positive, Mean ([10]; 20 μg applied): 55% | Percentage positive, Assay 1 [10, 12]: 52* % | Percentage positive, Assay 2 [10, 12]: 58* % | Percentage positive, Mean ([10]; 40 μg applied): 32% | Percentage positive, Assay 1 [10, 13]: 50* % | Percentage positive, Assay 2 [10, 13]: 13* % | Percentage positive ([10]; 13-day embryo, 5.0 μg applied): 0/26 | Inhibition of new blood vessel formation (VX2 carcinoma; day 21): about 25% | Inhibition of new blood vessel formation (VX2 carcinoma; days 7 and 14): about 60% | half-life (Mouse IV PK study): ~35 min | Cytostatic activity against B16 in culture (Murine B16 melanoma): minimal cytostatic activity

— patent US6962909B2, “Treatment of neovascularization disorders with squalimine” (Genaera Corporation, priority 1995, dated 2005)
